Experimental data: ChEMBL document CHEMBL5584243, “Discovery of JNJ-74856665: A Novel Isoquinolinone DHODH Inhibitor for the Treatment of AML” (J Med Chem, 2024)
≈ marks a conversion by molar mass, not a printed value.

Tests used:
[1] = molecular target: Voltage-gated inwardly rectifying potassium channel KCNH2 (Homo sapiens, UniProt Q12809); assay: Inhibition of hERG; assay type: toxicity
[2] = Metabolic stability in dog liver microsomes assessed as half life incubated upto 60 mins in presence of NADPH by LC-MS/MS analysis; assay type: ADME, Canis lupus familiaris, Microsome
PXR (NR1I2) = molecular target: T1, PXR (NR1I2) (Homo sapiens, UniProt O75469); assay: Activation of PXR (unknown origin) assessed as fold change at 10 uM relative to control; assay type: ADME; conditions: read-out: FC
T1 sequence (O75469 whole entry): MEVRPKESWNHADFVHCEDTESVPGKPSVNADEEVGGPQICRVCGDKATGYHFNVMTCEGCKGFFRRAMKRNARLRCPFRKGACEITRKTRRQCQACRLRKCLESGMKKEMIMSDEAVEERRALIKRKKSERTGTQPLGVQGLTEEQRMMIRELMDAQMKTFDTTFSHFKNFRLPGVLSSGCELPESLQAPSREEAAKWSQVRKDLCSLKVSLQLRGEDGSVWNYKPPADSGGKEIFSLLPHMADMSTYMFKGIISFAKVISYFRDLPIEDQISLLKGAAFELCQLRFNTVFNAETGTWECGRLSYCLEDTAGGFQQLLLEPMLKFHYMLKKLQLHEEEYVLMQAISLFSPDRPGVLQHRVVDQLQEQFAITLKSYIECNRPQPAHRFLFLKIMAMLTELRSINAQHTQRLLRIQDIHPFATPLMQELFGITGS

[3] = Equilibrium solubility of compound in PBS at pH 7 incubated for 2 to 5 days by HPLC analysis; assay type: physicochemical; conditions: time 2-5 day
[4] = Tmax in cynomolgus monkey at 10 mg/kg,po; assay type: ADME, organism-based, Macaca fascicularis; conditions: in vivo
[5] = Equilibrium solubility of compound in PBS at pH 2 incubated for 2 to 5 days by HPLC analysis; assay type: physicochemical; conditions: PBS, time 2-5 day
[6] = Half life in human hepatocyte; assay type: ADME, cell-based; conditions: hepatocytes
[7] = Tmax in C57BL mouse at […] measured upto 24 hrs by LC-MS/MS analysis; assay type: ADME, organism-based; conditions: in vivo
[8] = Half life in cynomolgus monkey at 1 mg/kg,iv; assay type: ADME, organism-based, Macaca fascicularis; conditions: in vivo
[9] = Inhibition of Sodium ion channel (unknown origin); parameters: species or system Homo sapiens
[10] = Toxicity in NSG mouse xenografted with human MOLM-13 cells assessed as change in body weight at 0.031 to 0.25 mg/kg,po administrated daily for 10 days relative to control; assay type: organism-based; conditions: in vivo, 240 h, dose 0.031-0.25 mg/kg, time 10 day
MOLM-13 [11] = assay: Antiproliferative activity against human MOLM-13 cells assessed as inhibition of cell growth incubated for 72 hrs by CellTiter-Glo assay; assay type: functional, cell-based; conditions: MOLM-13, 72 h
[12] = Clearance in cynomolgus monkey at 1 mg/kg,iv; assay type: ADME, organism-based, Macaca fascicularis; conditions: in vivo
[13] = Oral bioavailability in cynomolgus monkey at 10 mg/kg; assay type: ADME, organism-based, Macaca fascicularis; conditions: in vivo
[14] = Half life in mouse hepatocyte; assay type: ADME, cell-based; conditions: hepatocytes
[15] = AUC (0 to infinity) in C57BL mouse at 2 mg/kg,iv measured upto 24 hrs by LC-MS/MS analysis; assay type: ADME, organism-based; conditions: in vivo
[16] = Metabolic stability in rat liver microsomes assessed as half life incubated upto 60 mins in presence of NADPH by LC-MS/MS analysis; assay type: ADME, Microsome
[17] = Volume of distribution at steady state in cynomolgus monkey at 1 mg/kg,iv; assay type: ADME, organism-based, Macaca fascicularis; conditions: in vivo, read-out: Vdss
[18] = Plasma protein binding in human at 1 uM incubated for 6.5 hrs by LC-MS/MS analysis; assay type: ADME, cell-free; conditions: read-out: PPB (converted)
[19] = Metabolic stability in human liver microsomes assessed as half life incubated upto 60 mins in presence of NADPH by LC-MS/MS analysis; assay type: ADME, Microsome
MOLM-13 [20] = assay: Antitumor activity against human MOLM-13 cells xenografted in NSG mouse assessed as tumor growth inhibition at 0.25 mg/kg,po administrated daily for 10 days relative to control; assay type: functional; conditions: MOLM-13, 240 h, time 10 day, read-out: TGI
[21] = molecular target: Dihydroorotate dehydrogenase (quinone), mitochondrial (Homo sapiens, UniProt Q02127); assay: Binding affinity to recombinant human DHODH assessed as dissociation constant by surface plasmon resonance assay
[22] = Half life in monkey hepatocyte; assay type: ADME, cell-based, Macaca mulatta; conditions: rhesus monkey, hepatocytes
[23] = Half life in rat hepatocyte; assay type: ADME, cell-based; conditions: hepatocytes
[24] = molecular target: T2, AhR (aryl hydrocarbon receptor) (Homo sapiens, UniProt P35869); assay: Activation of AhR (unknown origin) assessed as fold change at 1 to 10 uM relative to control; conditions: dose 1-10 µM, read-out: FC
T2 sequence (P35869 whole entry): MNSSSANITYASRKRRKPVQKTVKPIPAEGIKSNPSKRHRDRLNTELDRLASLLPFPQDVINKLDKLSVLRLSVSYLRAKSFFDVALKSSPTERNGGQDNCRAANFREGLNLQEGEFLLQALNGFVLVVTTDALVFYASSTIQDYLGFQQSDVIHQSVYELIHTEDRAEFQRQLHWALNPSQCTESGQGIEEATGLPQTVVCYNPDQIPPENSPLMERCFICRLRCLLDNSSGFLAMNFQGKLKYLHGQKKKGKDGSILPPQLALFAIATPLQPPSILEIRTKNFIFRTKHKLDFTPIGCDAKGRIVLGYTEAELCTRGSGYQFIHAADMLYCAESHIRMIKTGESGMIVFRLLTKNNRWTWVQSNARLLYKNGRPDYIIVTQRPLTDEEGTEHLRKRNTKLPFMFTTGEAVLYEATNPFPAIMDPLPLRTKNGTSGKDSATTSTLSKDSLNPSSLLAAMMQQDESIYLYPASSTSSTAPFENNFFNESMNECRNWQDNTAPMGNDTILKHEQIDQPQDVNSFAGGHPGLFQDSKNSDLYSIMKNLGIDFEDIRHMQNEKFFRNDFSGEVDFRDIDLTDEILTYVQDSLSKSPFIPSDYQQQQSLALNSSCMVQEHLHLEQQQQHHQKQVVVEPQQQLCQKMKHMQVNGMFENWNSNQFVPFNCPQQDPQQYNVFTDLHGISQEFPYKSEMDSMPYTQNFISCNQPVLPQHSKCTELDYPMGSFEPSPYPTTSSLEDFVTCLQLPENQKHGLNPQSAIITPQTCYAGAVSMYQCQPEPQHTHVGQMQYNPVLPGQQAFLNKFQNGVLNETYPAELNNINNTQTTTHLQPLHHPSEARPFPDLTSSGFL

[25] = Cmax in C57BL mouse at […] measured upto 24 hrs by LC-MS/MS analysis; assay type: ADME, organism-based; conditions: in vivo
[26] = AUC (0 to infinity) in cynomolgus monkey at 10 mg/kg,po; assay type: ADME, organism-based, Macaca fascicularis; conditions: in vivo
MOLM-13 [27] = assay: Antitumor activity against human MOLM-13 cells xenografted in NSG mouse assessed as tumor growth inhibition at 0.125 mg/kg,po administrated daily for 10 days relative to control; assay type: functional; conditions: MOLM-13, 240 h, time 10 day, read-out: TGI
[28] = Plasma protein binding in C57BL mouse at 1 uM incubated for 6.5 hrs by LC-MS/MS analysis; assay type: ADME, cell-free; conditions: read-out: PPB (converted)
[29] = molecular target: Kappa-type opioid receptor (Homo sapiens, UniProt P41145); assay: Inhibition of KOP (unknown origin)
[30] = Equilibrium solubility of compound in SGF at pH 1 using crystalline form incubated for 2 to 5 days by HPLC analysis; assay type: ADME; conditions: time 2-5 day

Kappa-type opioid receptor, sequence (P41145 whole entry): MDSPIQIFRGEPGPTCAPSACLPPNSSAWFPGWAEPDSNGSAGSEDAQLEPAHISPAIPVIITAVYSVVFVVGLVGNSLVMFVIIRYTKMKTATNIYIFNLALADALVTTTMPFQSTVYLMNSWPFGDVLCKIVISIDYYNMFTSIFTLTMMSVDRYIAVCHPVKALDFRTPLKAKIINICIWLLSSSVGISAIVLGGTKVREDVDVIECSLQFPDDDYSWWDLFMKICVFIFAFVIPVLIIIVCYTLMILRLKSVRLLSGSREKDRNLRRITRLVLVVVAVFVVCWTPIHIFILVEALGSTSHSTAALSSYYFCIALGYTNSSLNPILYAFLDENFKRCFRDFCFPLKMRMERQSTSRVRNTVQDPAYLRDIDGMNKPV
Dihydroorotate dehydrogenase (quinone), mitochondrial, sequence (Q02127 whole entry): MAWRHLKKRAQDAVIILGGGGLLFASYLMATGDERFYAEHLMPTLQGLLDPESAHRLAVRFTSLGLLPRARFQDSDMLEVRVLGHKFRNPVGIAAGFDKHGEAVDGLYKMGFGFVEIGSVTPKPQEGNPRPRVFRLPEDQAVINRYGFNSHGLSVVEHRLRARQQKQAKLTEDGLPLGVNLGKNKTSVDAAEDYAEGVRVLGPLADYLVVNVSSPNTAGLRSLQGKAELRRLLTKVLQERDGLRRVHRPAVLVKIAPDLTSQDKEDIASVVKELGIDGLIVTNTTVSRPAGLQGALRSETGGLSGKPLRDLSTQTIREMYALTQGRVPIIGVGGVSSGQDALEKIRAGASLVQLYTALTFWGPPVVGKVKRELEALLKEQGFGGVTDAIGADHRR
Voltage-gated inwardly rectifying potassium channel KCNH2, sequence (Q12809 whole entry): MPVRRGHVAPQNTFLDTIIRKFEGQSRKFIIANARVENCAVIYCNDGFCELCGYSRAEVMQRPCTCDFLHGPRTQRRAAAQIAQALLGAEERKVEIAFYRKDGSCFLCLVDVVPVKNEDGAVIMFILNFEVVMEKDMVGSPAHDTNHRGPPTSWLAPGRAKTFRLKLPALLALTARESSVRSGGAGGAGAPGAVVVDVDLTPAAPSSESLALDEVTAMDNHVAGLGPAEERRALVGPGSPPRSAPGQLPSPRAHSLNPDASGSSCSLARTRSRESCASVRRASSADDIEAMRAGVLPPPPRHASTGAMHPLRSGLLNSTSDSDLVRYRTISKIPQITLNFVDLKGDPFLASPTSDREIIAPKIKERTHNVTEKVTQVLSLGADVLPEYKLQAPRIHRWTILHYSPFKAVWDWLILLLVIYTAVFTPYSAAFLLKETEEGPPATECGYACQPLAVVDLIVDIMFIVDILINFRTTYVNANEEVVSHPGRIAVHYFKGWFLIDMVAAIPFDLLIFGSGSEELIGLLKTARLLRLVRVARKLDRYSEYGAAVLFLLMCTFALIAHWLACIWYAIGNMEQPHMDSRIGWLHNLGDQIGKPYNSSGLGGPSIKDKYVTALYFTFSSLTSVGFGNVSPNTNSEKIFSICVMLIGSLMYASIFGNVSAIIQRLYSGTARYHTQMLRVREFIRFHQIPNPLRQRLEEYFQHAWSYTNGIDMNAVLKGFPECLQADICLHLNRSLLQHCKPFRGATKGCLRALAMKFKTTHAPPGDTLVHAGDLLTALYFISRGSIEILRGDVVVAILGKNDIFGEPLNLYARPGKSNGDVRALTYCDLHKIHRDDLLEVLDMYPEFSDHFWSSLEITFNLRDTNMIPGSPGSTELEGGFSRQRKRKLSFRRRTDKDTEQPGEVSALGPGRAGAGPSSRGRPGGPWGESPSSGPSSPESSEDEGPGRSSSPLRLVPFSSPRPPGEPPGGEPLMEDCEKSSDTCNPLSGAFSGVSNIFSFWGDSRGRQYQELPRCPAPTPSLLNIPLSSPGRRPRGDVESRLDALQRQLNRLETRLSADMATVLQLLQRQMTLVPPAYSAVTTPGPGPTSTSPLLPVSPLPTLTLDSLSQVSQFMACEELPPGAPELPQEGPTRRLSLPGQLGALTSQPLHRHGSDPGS

Which results are given for `CCn1c(CO)nn(-c2cc3c(C(C)C)cn(-c4ccccc4C)c(=O)c3cc2F)c1=O`?
IC50 [1]: > 10 µM; half-life [2]: 0.958 h; fold induction at 10 µM (PXR (NR1I2)): 7.4; solubility thermodynamic [3]: 371 µM (≈ 162 µg/mL); Tmax [4]: 3.3 h; solubility thermodynamic [5]: 325 µM (≈ 142 µg/mL); half-life [6]: > 6.18 h; Tmax [7]: 1.7 h; half-life [8]: 6.4 h; IC50 [9]: > 10 µM; Activity [10]: Toxic; IC50 (MOLM-13 [11]): 0.00019 µM; clearance [12]: 2.4 mL/min/kg; bioavailability [13]: 88%; half-life [14]: > 6.18 h; AUC [15]: 57200 ng·h/mL; half-life [16]: > 3 h; Vd [17]: 1.2 L/kg; fraction unbound at 6.5 h, 1 µM [18]: 0.099; half-life [19]: > 3 h; inhibition in vivo at 0.25 mg/kg (MOLM-13 [20]): 93%; Kd [21]: 0.00222 µM; half-life [22]: > 6.18 h; half-life [23]: > 6.18 h; fold induction [24]: < 2; Cmax [25]: 6200 ng/mL; AUC(0-inf) [26]: 64600 ng·h/mL; inhibition in vivo at 0.125 mg/kg (MOLM-13 [27]): 92%; fraction unbound at 6.5 h, 1 µM [28]: 0.088; IC50 [29]: 14 µM; solubility thermodynamic [30]: 25 µg/mL (≈ 57.3 µM)
